Several values for one entry are separate records, joined by “and”; a condition that tells them apart may be missing. Equal values may be shown once. Read-outs that look alike come from different tables or passages of the source.
Experiments:
α-amylase [1] = target: T1, α-amylase (Sus scrofa, UniProt P00690); experiment: FTIR secondary structure analysis of α-AMY complexes; details: enzyme–porphyrin molar ratio 1:2, amide I band
T1 sequence (P00690 16-511): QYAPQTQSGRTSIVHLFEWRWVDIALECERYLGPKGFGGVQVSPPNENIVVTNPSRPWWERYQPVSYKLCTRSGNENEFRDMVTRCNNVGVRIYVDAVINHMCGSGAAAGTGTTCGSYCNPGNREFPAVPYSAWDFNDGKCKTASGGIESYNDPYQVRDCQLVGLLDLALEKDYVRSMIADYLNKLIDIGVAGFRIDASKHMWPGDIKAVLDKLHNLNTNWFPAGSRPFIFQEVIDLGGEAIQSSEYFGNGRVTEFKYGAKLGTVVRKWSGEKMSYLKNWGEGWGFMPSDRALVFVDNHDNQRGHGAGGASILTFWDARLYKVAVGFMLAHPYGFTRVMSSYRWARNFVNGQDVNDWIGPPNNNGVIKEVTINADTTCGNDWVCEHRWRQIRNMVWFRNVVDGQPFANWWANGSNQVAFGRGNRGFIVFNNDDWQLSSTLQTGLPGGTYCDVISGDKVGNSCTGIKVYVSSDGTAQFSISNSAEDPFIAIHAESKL
Excerpt: A molar ratio of 1:2 (α-amylase/α-glucosidase)–porphyrin solution was placed in a cryocentrifugal concentrator and the dried solid sample was mixed with dry KBr and measured using a Nicolet IS-50 FTIR Spectrometer (ThermoFisher, Waltham, MA, USA) with a scanning range of 4000–400 cm^−1 and a resolution of 4 cm^−1. The overlapping peaks in the amide I band (1700–1600 cm^−1) were further analyzed into multiple feature sub-peaks, and quantitative analysis of the relative content of various secondary structures in proteins using curve fitting methods was performed.

α-amylase [2] = target: T1, α-amylase; experiment: Fluorescence quenching, binding and thermodynamics with α-amylase
Excerpt: In the α-amylase experiment, a series of porphyrins and amylase (200 U/L) were mixed in a volume ratio of 1:1.
(§1) The Stern–Volmer equation [35] was adopted to determine the quenching mechanisms between six porphyrin compounds and both enzymes in the experimental group, with Formula (6):(6) F0/F=1+Ksv[Q]=1+Kqτ0[Q]
(§2) The Stern–Volmer equation was adapted based on experimental data to more accurately characterize the quenching behavior [36], with Formula (7):(7) F0/F=e^Ksv[Q]=e^Kqτ0[Q]
(§3) In the formula, the fluorescence quenching ratio was calculated as F0/F, where F0 corresponds to the emission intensity of pure α-amylase solution (control) and F denotes the intensity measured after the incremental addition of porphyrin ligands. KSV and Kq denote the Stern–Volmer quenching constant and the bimolecular quenching rate constant, respectively, τ0 (10^−8 s) is the average fluorescence lifetime of the fluorophore in the absence of quencher, and [Q] indicates the concentration of porphyrin compounds.
(§4) Due to the presence of an internal filtration effect, a decrease in the fluorescence intensity of the system may occur. Therefore, all fluorescence data were corrected using Formula (8) to eliminate the internal filtration effect.(8) Fcor=Fobse^(Aex+Aem)/2
(§5) The evaluation of the interaction forces between porphyrin compounds and the two enzymes can be achieved by calculating thermodynamic parameters. When both ΔH^0 and ΔS^0 are positive, the predominant interaction force is hydrophobic. When both ΔH^0 and ΔS^0 are negative, the main forces are hydrogen bonding and van der Waals forces. When ΔH^0 < 0 and ΔS^0 > 0, the primary interaction is electrostatic attraction.
(§6) The thermodynamic parameters were calculated using Formulas (9) and (10), and then the Van’t Hoff plot for the interactions between the porphyrin compounds and the two enzymes was generated by plotting lnKa on the Y-axis versus 1/T on the X-axis.(9) lnKa=−ΔH^0/RT+ΔS^0/R (10) ΔG^0=ΔH^0−TΔS^0=−RTlnKa

α-glucosidase [3] = target: T2, α-glucosidase (Saccharomyces cerevisiae, UniProt P53341); experiment: Fluorescence quenching, binding and thermodynamics with α-glucosidase
T2 sequence (P53341 whole entry): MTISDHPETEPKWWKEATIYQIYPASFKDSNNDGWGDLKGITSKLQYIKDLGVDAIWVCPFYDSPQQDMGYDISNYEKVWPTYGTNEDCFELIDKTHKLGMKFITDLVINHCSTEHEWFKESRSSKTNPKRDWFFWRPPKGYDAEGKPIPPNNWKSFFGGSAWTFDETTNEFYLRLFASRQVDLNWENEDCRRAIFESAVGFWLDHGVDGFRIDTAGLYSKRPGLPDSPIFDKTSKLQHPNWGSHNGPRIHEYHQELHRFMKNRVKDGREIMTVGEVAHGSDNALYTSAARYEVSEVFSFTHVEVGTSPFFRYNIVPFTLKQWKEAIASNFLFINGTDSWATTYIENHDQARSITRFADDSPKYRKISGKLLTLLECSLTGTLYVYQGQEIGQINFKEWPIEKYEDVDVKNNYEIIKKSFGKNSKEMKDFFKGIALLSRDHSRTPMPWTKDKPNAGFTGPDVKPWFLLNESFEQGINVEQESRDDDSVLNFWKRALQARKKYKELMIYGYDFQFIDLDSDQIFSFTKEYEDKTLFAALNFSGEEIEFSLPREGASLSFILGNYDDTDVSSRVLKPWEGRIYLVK
Experimental: In the α-amylase experiment, a series of porphyrins and amylase (200 U/L) were mixed in a volume ratio of 1:1. In the α-glucosidase experiment, the glucosidase concentration was 400 U/L, mixed in a volume ratio of 1:1; the samples were maintained at three different temperatures (298, 304, and 310 K) for 30 min, with excitation at 280 nm and emission scanning from 300 to 500 nm.
as §1, §2, §3, §4, §5, §6

α-glucosidase [4] = target: T2, α-glucosidase; type: biochemical
Excerpt: In the experiment, the concentration of the fixed substrate Gal-G2-α-CNP/pNPG solution was 5 mmol/L, and the concentrations of the two enzymes (100, 200, 300, 400 U/L) were used to determine the effect of different concentrations of porphyrins on enzyme activity. The concentration of the enzyme was 200 U/L, and the concentration of the substrate Gal-G2-α-CNP/pNPG solution (2.5, 5, 7.5, 10 mmol/L) was used to determine the effect of different concentrations of porphyrins on the enzyme-catalyzed substrate activity.
Upon identifying the type of inhibition, the kinetic equations vary for different inhibition types.
In the formula, v, Vmax, Km, Ki, and Kis represent the reaction rate, maximum reaction rate, Michaelis constant, and free enzyme inhibition constant, respectively, and the binding enzyme inhibition constant. [S] denotes the substrate concentration. [I] denotes the inhibitor concentration.

α-amylase [5] = target: T1, α-amylase; experiment: Three-dimensional fluorescence spectroscopy of α-amylase complexes; details: 298 K; TAPP 2.5, THPP 10, TCPP 10, Fe–TCPP 12.5, Ni–TCPP 17.5, Cu–TCPP 10 μg/mL
Experimental: At 298 K, with excitation wavelengths ranging from 200 to 600 nm (2 nm increments) and emission wavelengths from 200 to 600 nm, the influence of small molecules on enzyme conformation was assessed by examining peaks in 3D fluorescence spectra [41].

Structure (SMILES): O=C(O)c1ccc(-c2c3nc(c(-c4ccc(C(=O)O)cc4)c4ccc([nH]4)c(-c4ccc(C(=O)O)cc4)c4nc(c(-c5ccc(C(=O)O)cc5)c5ccc2[nH]5)C=C4)C=C3)cc1.[Ni+2] [Ni–TCPP, nickel (II) meso-tetra (4-carboxyphenyl) porphine]
- Random Coil (α-amylase [1]): 21.40 ± 0.05%
- α-Helix (α-amylase [1]): 20.76 ± 0.06%
- β-Antiparallel (α-amylase [1]): 10.30 ± 0.03%
- β-Sheet (α-amylase [1]): 11.20 ± 0.02%
- β-Turn (α-amylase [1]): 36.33 ± 0.13%
- quenching mechanism of α-amylase fluorescence (α-amylase [2]; Stern–Volmer plots, 298–310 K): pure static quenching
- Ka (binding constant) (α-amylase [2]; T 298 K): 99.31 ± 0.12 ×10^5 L/mol
- Kq (α-amylase [2]; T 298 K): 9.78 ± 0.03 ×10^12 L/mol/s
- Ksv (α-amylase [2]; T 298 K): 9.78 ± 0.03 ×10^4 L/mol
- n (number of binding sites) (α-amylase [2]; T 298 K): 1.44
- ΔG^0 (α-amylase [2]; T 298 K): -9.541 ± 0.019 kcal/mol
- Ka (binding constant) (α-amylase [2]; T 304 K): 5.75 ± 0.04 ×10^5 L/mol
- Kq (α-amylase [2]; T 304 K): 8.47 ± 0.07 ×10^12 L/mol/s
- Ksv (α-amylase [2]; T 304 K): 8.47 ± 0.07 ×10^4 L/mol
- n (number of binding sites) (α-amylase [2]; T 304 K): 1.19
- ΔG^0 (α-amylase [2]; T 304 K): -8.011 ± 0.014 kcal/mol
- Ka (binding constant) (α-amylase [2]; T 310 K): 0.61 ± 0.02 ×10^5 L/mol
- Kq (α-amylase [2]; T 310 K): 7.11 ± 0.05 ×10^12 L/mol/s
- Ksv (α-amylase [2]; T 310 K): 7.11 ± 0.05 ×10^4 L/mol
- n (number of binding sites) (α-amylase [2]; T 310 K): 0.99
- ΔG^0 (α-amylase [2]; T 310 K): -6.785 ± 0.017 kcal/mol
- ΔH^0 (α-amylase [2]; Van’t Hoff, 298–310 K): -78.002 ± 0.043 kcal/mol
- ΔS^0 (α-amylase [2]; Van’t Hoff, 298–310 K): −961.90 ± 0.08 J/mol/k
- binding constants K (α-glucosidase [3]; 310 K): (1.83 ± 0.01) × 10^5 L·mol^−1
- quenching mechanism of α-glucosidase fluorescence (α-glucosidase [3]; Stern–Volmer plots, 298–310 K): static quenching
- Ka (binding constant) (α-glucosidase [3]; T 298 K): 2.34 ± 0.04 ×10^5 L/mol
- Kq (α-glucosidase [3]; T 298 K): 17.73 ± 0.15 ×10^12 L/mol/s
- Ksv (α-glucosidase [3]; T 298 K): 17.73 ± 0.15 ×10^4 L/mol
- n (number of binding sites) (α-glucosidase [3]; T 298 K): 1.03
- ΔG^0 (α-glucosidase [3]; T 298 K): -7.321 ± 0.0311 kcal/mol
- Ka (binding constant) (α-glucosidase [3]; T 304 K): 2.09 ± 0.02 ×10^5 L/mol
- Kq (α-glucosidase [3]; T 304 K): 14.23 ± 0.09 ×10^12 L/mol/s
- Ksv (α-glucosidase [3]; T 304 K): 14.23 ± 0.09 ×10^4 L/mol
- n (number of binding sites) (α-glucosidase [3]; T 304 K): 1.04
- ΔG^0 (α-glucosidase [3]; T 304 K): -7.4 ± 0.014 kcal/mol
- Ka (binding constant) (α-glucosidase [3]; T 310 K): 1.83 ± 0.01 ×10^5 L/mol
- Kq (α-glucosidase [3]; T 310 K): 12.31 ± 0.08 ×10^12 L/mol/s
- Ksv (α-glucosidase [3]; T 310 K): 12.31 ± 0.08 ×10^4 L/mol
- n (number of binding sites) (α-glucosidase [3]; T 310 K): 1.03
- ΔG^0 (α-glucosidase [3]; T 310 K): -7.464 ± 0.017 kcal/mol
- ΔH^0 (α-glucosidase [3]; Van’t Hoff, 298–310 K): -3.786 ± 0.012 kcal/mol
- ΔS^0 (α-glucosidase [3]; Van’t Hoff, 298–310 K): 49.67 ± 0.08 J/mol/k
- Km (α-glucosidase [4]): 3.0491 ± 0.0776 µg/mL and 3.3243 ± 0.0748 µg/mL and 3.5279 ± 0.0812 µg/mL and 3.8090 ± 0.1419 µg/mL and 4.1248 ± 0.0704 µg/mL
- Vmax (α-glucosidase [4]; C 5 μg/mL): 0.1036 ± 0.0026 ΔOD/min
- Vmax (α-glucosidase [4]; C 7.5 μg/mL): 0.0909 ± 0.0020 ΔOD/min
- Vmax (α-glucosidase [4]; C 10 μg/mL): 0.0791 ± 0.0018 ΔOD/min
- Vmax (α-glucosidase [4]; C 15 μg/mL): 0.0628 ± 0.0023 ΔOD/min
- Vmax (α-glucosidase [4]; C 25 μg/mL): 0.0444 ± 0.0008 ΔOD/min
- type of inhibition of α-glucosidase (α-glucosidase [4]; Lineweaver–Burk plots): mixed type
- reversibility of inhibition of α-glucosidase (α-glucosidase [4]; enzyme 100–400 U/L, substrate 5 mmol/L): reversible inhibition
- Kis (α-glucosidase [4]; enzyme–substrate complex inhibition constant): 9.2257 ± 0.0312 µg/mL
- Ki (α-glucosidase [4]; free enzyme inhibition constant): 3.8703 ± 0.0201 µg/mL
- Peak 1 Fluorescence Intensity (α-amylase [5]): 225.2
- Peak 2 Fluorescence Intensity (α-amylase [5]): 9.012

Reference: publication PMC12467033, “Exploring the Inhibitory Potential of Six Porphyrin Compounds Against α-Amylase and α-Glucosidase Linked to Diabetes” (Biomolecules, 2025)
